Experimental data published in ChEMBL document CHEMBL3797055, “Glabridin-chalcone hybrid molecules: drug resistance reversal agent against clinical isolates of methicillin-resistant Staphylococcus aureus” (Medchemcomm, 2016).
Converted amounts (≈) assume the structure as drawn.

Experiments:
Staphylococcus aureus [1] = experiment: Potentiation of norfloxacin-induced antibacterial activity against clinical isolates of methicillin-resistant Staphylococcus aureus ST10342 assessed as reduction in norfloxacin MIC by checkerboard assay relative to control; format: functional
Staphylococcus aureus [2] = experiment: Antibacterial activity against clinical isolates of methicillin-resistant Staphylococcus aureus P4423 by checkerboard assay in presence of norfloxacin; format: functional
Staphylococcus aureus [3] = experiment: Antibacterial activity against clinical isolates of methicillin-resistant Staphylococcus aureus ST10342 by broth microdilution assay; format: functional
Staphylococcus aureus [4] = experiment: Antibacterial activity against Staphylococcus aureus MTCC 96 infected in ip dosed Swiss mouse assessed as reduction in bacterial load in kidney administered qd for 7 days post infection measured 24 hrs after last dose by plate counting analysis; format: functional, organism-based
Staphylococcus aureus [5] = experiment: Potentiation of norfloxacin-induced antibacterial activity against clinical isolates of methicillin-resistant Staphylococcus aureus P4650 assessed as reduction in norfloxacin MIC by checkerboard assay relative to control; format: functional
Staphylococcus aureus [6] = experiment: Antibacterial activity against Staphylococcus aureus MTCC 96 infected in ip dosed Swiss mouse assessed as reduction in bacterial load in lung administered qd for 7 days post infection measured 24 hrs after last dose by plate counting analysis; format: functional, organism-based
Staphylococcus aureus [7] = experiment: Ratio of MIC for clinical isolates of methicillin-resistant Staphylococcus aureus ST10342 to MIC for clinical isolates of methicillin-resistant Staphylococcus aureus ST10342 in presence of norfloxacin; format: functional
Staphylococcus aureus [8] = experiment: Ratio of MIC for clinical isolates of methicillin-resistant Staphylococcus aureus ST2071 to MIC for clinical isolates of methicillin-resistant Staphylococcus aureus ST2071 in presence of norfloxacin; format: functional
Staphylococcus aureus [9] = experiment: Ratio of MIC for clinical isolates of methicillin-resistant Staphylococcus aureus ST10760 to MIC for clinical isolates of methicillin-resistant Staphylococcus aureus ST10760 in presence of norfloxacin; format: functional
Staphylococcus aureus [10] = experiment: Antibacterial activity against clinical isolates of methicillin-resistant Staphylococcus aureus P4650 by checkerboard assay in presence of norfloxacin; format: functional
Staphylococcus aureus [11] = experiment: Antibacterial activity against clinical isolates of methicillin-resistant Staphylococcus aureus ST10760 by checkerboard assay in presence of norfloxacin; format: functional
Staphylococcus aureus [12] = experiment: Antibacterial activity against clinical isolates of methicillin-resistant Staphylococcus aureus P4423 by broth microdilution assay; format: functional
Staphylococcus aureus [13] = experiment: Potentiation of norfloxacin-induced antibacterial activity against clinical isolates of methicillin-resistant Staphylococcus aureus P4629 assessed as norfloxacin MIC by checkerboard assay; format: functional
Staphylococcus aureus [14] = experiment: Antibacterial activity against clinical isolates of methicillin-resistant Staphylococcus aureus P4650 by broth microdilution assay; format: functional
Mus musculus [15] = experiment: Toxicity in Swiss mouse infected with Staphylococcus aureus MTCC 96 assessed as morbidity at 12.5 to 100 mg/kg, ip qd for 7 days post infection; format: organism-based; conditions: in vivo, 168 h
Staphylococcus aureus [16] = experiment: Antibacterial activity against clinical isolates of methicillin-resistant Staphylococcus aureus ST10342 by checkerboard assay in presence of norfloxacin; format: functional
Staphylococcus aureus [17] = experiment: Potentiation of norfloxacin-induced antibacterial activity against clinical isolates of methicillin-resistant Staphylococcus aureus P4423 assessed as reduction in norfloxacin MIC by checkerboard assay relative to control; format: functional
Staphylococcus aureus [18] = experiment: Antibacterial activity against clinical isolates of methicillin-resistant Staphylococcus aureus P4629 by checkerboard assay in presence of norfloxacin; format: functional
Staphylococcus aureus [19] = experiment: Potentiation of norfloxacin-induced antibacterial activity against clinical isolates of methicillin-resistant Staphylococcus aureus ST10760 assessed as norfloxacin MIC by checkerboard assay; format: functional
Staphylococcus aureus [20] = experiment: Ratio of MIC for clinical isolates of methicillin-resistant Staphylococcus aureus P4629 to MIC for clinical isolates of methicillin-resistant Staphylococcus aureus P4629 in presence of norfloxacin; format: functional
Staphylococcus aureus [21] = experiment: Antibacterial activity against clinical isolates of methicillin-resistant Staphylococcus aureus ST2071 by checkerboard assay in presence of norfloxacin; format: functional
Staphylococcus aureus [22] = experiment: Potentiation of norfloxacin-induced antibacterial activity against clinical isolates of methicillin-resistant Staphylococcus aureus ST2071 assessed as reduction in norfloxacin MIC by checkerboard assay relative to control; format: functional
Staphylococcus aureus [23] = experiment: Potentiation of norfloxacin-induced antibacterial activity against clinical isolates of methicillin-resistant Staphylococcus aureus ST10760 assessed as reduction in norfloxacin MIC by checkerboard assay relative to control; format: functional
Staphylococcus aureus [24] = experiment: Bactericidal activity against clinical isolates of methicillin-resistant Staphylococcus aureus ST2071 assessed as reduction in viability at MIC after 24 hrs by time kill kinetic analysis relative to control; format: functional
Staphylococcus aureus [25] = experiment: Potentiation of norfloxacin-induced antibacterial activity against clinical isolates of methicillin-resistant Staphylococcus aureus P4423 assessed as norfloxacin MIC by checkerboard assay; format: functional
Staphylococcus aureus [26] = experiment: Antibacterial activity against clinical isolates of methicillin-resistant Staphylococcus aureus P4629 by broth microdilution assay; format: functional
Staphylococcus aureus [27] = experiment: Bactericidal activity against clinical isolates of methicillin-resistant Staphylococcus aureus ST2071 assessed as reduction in viability at 0.5 MIC after 24 hrs by time kill kinetic analysis relative to control; format: functional
Staphylococcus aureus [28] = experiment: Antibacterial activity against clinical isolates of methicillin-resistant Staphylococcus aureus ST10760 by broth microdilution assay; format: functional
Staphylococcus aureus [29] = experiment: Potentiation of norfloxacin-induced antibacterial activity against clinical isolates of methicillin-resistant Staphylococcus aureus P4650 assessed as norfloxacin MIC by checkerboard assay; format: functional
Staphylococcus aureus [30] = experiment: Potentiation of norfloxacin-induced antibacterial activity against clinical isolates of methicillin-resistant Staphylococcus aureus P4629 assessed as reduction in norfloxacin MIC by checkerboard assay relative to control; format: functional
Staphylococcus aureus [31] = experiment: Antibacterial activity against clinical isolates of methicillin-resistant Staphylococcus aureus ST2071 by broth microdilution assay; format: functional
Staphylococcus aureus [32] = experiment: Antibacterial activity against Staphylococcus aureus MTCC 96 infected in ip dosed Swiss mouse assessed as reduction in bacterial load in blood administered qd for 7 days post infection measured 24 hrs after last dose by plate counting analysis; format: functional, organism-based
Staphylococcus aureus [33] = experiment: Ratio of MIC for clinical isolates of methicillin-resistant Staphylococcus aureus P4423 to MIC for clinical isolates of methicillin-resistant Staphylococcus aureus P4423 in presence of norfloxacin; format: functional
Staphylococcus aureus [34] = experiment: Bactericidal activity against clinical isolates of methicillin-resistant Staphylococcus aureus ST2071 assessed as reduction in viability at 0.5 MIC after 24 hrs by time kill kinetic analysis in presence of norfloxacin relative to control; format: functional
Staphylococcus aureus [35] = experiment: Potentiation of norfloxacin-induced antibacterial activity against clinical isolates of methicillin-resistant Staphylococcus aureus ST10342 assessed as norfloxacin MIC by checkerboard assay; format: functional
Staphylococcus aureus [36] = experiment: Antibacterial activity against Staphylococcus aureus MTCC 96 infected in ip dosed Swiss mouse assessed as reduction in bacterial load in liver administered qd for 7 days post infection measured 24 hrs after last dose by plate counting analysis; format: functional, organism-based
Staphylococcus aureus [37] = experiment: Potentiation of norfloxacin-induced antibacterial activity against clinical isolates of methicillin-resistant Staphylococcus aureus ST2071 assessed as norfloxacin MIC by checkerboard assay; format: functional
Mus musculus [38] = experiment: Toxicity in Swiss mouse infected with Staphylococcus aureus MTCC 96 assessed as mortality at 12.5 to 100 mg/kg, ip qd for 7 days post infection; format: organism-based; conditions: in vivo, 168 h
Staphylococcus aureus [39] = experiment: Ratio of MIC for clinical isolates of methicillin-resistant Staphylococcus aureus P4650 to MIC for clinical isolates of methicillin-resistant Staphylococcus aureus P4650 in presence of norfloxacin; format: functional
Staphylococcus aureus [40] = experiment: Antibacterial activity against Staphylococcus aureus MTCC 96 infected in ip dosed Swiss mouse assessed as reduction in bacterial load in spleen administered qd for 7 days post infection measured 24 hrs after last dose by plate counting analysis; format: functional, organism-based
Staphylococcus aureus [41] = experiment: Antibacterial activity against Staphylococcus aureus MTCC 96 by broth microdilution assay; format: functional

**Q.** How did the “fold change (FC)” value (Staphylococcus aureus [1]) turn out when COc1cc(OC)c([C@@H]2COc3c(cc(/C=C/C(=O)c4ccco4)c4c3C=CC(C)(C)O4)C2)cc1/C=C/C(=O)c1ccco1 was run?
**A.** 8

**Q.** What about the “fractional inhibitory concentration index (FICI)” value (Staphylococcus aureus [2]) of the same compound?
**A.** 0.375

**Q.** What about the MIC (Staphylococcus aureus [3]) of the same compound?
**A.** 50 µg/mL (≈ 84.4 µM)

**Q.** And the Activity (Staphylococcus aureus [4])?
**A.** Dose-dependent effect

**Q.** And the “fold change (FC)” value (Staphylococcus aureus [5])?
**A.** 8

**Q.** What about the Activity (Staphylococcus aureus [6]) of the same compound?
**A.** Dose-dependent effect

**Q.** And the Ratio (Staphylococcus aureus [7])?
**A.** <=4

**Q.** What about the Ratio (Staphylococcus aureus [8]) of the same compound?
**A.** <=4

**Q.** And the Ratio (Staphylococcus aureus [9])?
**A.** <=4

**Q.** What about the “fractional inhibitory concentration index (FICI)” value (Staphylococcus aureus [10]) of the same compound?
**A.** 0.375

**Q.** What about the “fractional inhibitory concentration index (FICI)” value (Staphylococcus aureus [11]) of the same compound?
**A.** 0.375

**Q.** What about the MIC (Staphylococcus aureus [12]) of the same compound?
**A.** 50 µg/mL (≈ 84.4 µM)

**Q.** And the MIC (Staphylococcus aureus [13])?
**A.** 31.2 µg/mL

**Q.** And the MIC (Staphylococcus aureus [14])?
**A.** 25 µg/mL (≈ 42.2 µM)

**Q.** What about the Activity (Mus musculus [15]) of the same compound?
**A.** Non-toxic

**Q.** What about the “fractional inhibitory concentration index (FICI)” value (Staphylococcus aureus [16]) of the same compound?
**A.** 0.375

**Q.** What about the “fold change (FC)” value (Staphylococcus aureus [17]) of the same compound?
**A.** 8

**Q.** What about the “fractional inhibitory concentration index (FICI)” value (Staphylococcus aureus [18]) of the same compound?
**A.** 0.312

**Q.** And the MIC (Staphylococcus aureus [19])?
**A.** 62.5 µg/mL

**Q.** And the Ratio (Staphylococcus aureus [20])?
**A.** <=4

**Q.** What about the “fractional inhibitory concentration index (FICI)” value (Staphylococcus aureus [21]) of the same compound?
**A.** 0.312

**Q.** What about the “fold change (FC)” value (Staphylococcus aureus [22]) of the same compound?
**A.** 16

**Q.** And the “fold change (FC)” value (Staphylococcus aureus [23])?
**A.** 8

**Q.** What about the “fold change (FC)” value (Staphylococcus aureus [24]) of the same compound?
**A.** 2

**Q.** And the MIC (Staphylococcus aureus [25])?
**A.** 31.2 µg/mL

**Q.** And the MIC (Staphylococcus aureus [26])?
**A.** 25 µg/mL (≈ 42.2 µM)

**Q.** What about the “fold change (FC)” value (Staphylococcus aureus [27]) of the same compound?
**A.** <=1.52

**Q.** What about the MIC (Staphylococcus aureus [28]) of the same compound?
**A.** 50 µg/mL (≈ 84.4 µM)

**Q.** What about the MIC (Staphylococcus aureus [29]) of the same compound?
**A.** 31.2 µg/mL

**Q.** What about the “fold change (FC)” value (Staphylococcus aureus [30]) of the same compound?
**A.** 16

**Q.** And the MIC (Staphylococcus aureus [31])?
**A.** 50 µg/mL (≈ 84.4 µM)

**Q.** And the Activity (Staphylococcus aureus [32])?
**A.** Dose-dependent effect

**Q.** And the Ratio (Staphylococcus aureus [33])?
**A.** <=4

**Q.** And the “fold change (FC)” value (Staphylococcus aureus [34])?
**A.** <16

**Q.** What about the MIC (Staphylococcus aureus [35]) of the same compound?
**A.** 31.2 µg/mL

**Q.** What about the Activity (Staphylococcus aureus [36]) of the same compound?
**A.** Dose-dependent effect

**Q.** What about the MIC (Staphylococcus aureus [37]) of the same compound?
**A.** 31.2 µg/mL

**Q.** What about the Activity (Mus musculus [38]) of the same compound?
**A.** Non-toxic

**Q.** What about the Ratio (Staphylococcus aureus [39]) of the same compound?
**A.** <=4

**Q.** And the Activity (Staphylococcus aureus [40])?
**A.** Dose-dependent effect

**Q.** What about the MIC (Staphylococcus aureus [41]) of the same compound?
**A.** 25 µg/mL (≈ 42.2 µM)
